According to ChEMBL document CHEMBL1201862, “PubChem BioAssay data set” (2004):
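These data come from cells grown in 96-well plates and exposed to compound for 48 hours at five concentrations. At the GI50, growth is halved.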 Calls of active or inactive are those of the source. Cut-off read from the data, not from the text of the source: active = GI50 up to about 1.1 µM and inactive = higher. *1 amine or outer side, *2 acyl side, *3 side chain or, on linkers, in order; H or OH if unused. Where a SMILES comes first, the peptide text is derived from it. Bridges are numbered along the chain shown (N, C = ends). [ ]: non-standard residue; d: D form. The star is where a group is joined. X56 = CC(C)C(C)C(C(=O)[*:2])N(C)[*:1]; Picolinoyl(3-OH) = O=C(c1ncccc1O)*; NMePhg = CN[CH](C(=O)O)c1ccccc1; Hyp = O=C(O)[CH]1C[CH](O)CN1; Sar = CNCC(=O)O

Assays:
Experiment in all cases: inhibition of tumour cell growth, NCI panel, 48 h
A498 = test system: A498
SF-539 = test system: SF-539
SF-268 = test system: SF-268
HCT-116 = test system: HCT-116
SNB-78 = test system: SNB-78
HT-29 = test system: HT-29
HOP-18 = test system: HOP-18
HL-60 = test system: HL-60
SN12C = test system: SN12C
XF498 = test system: XF498
K562 = test system: K562
HCC 2998 = test system: HCC 2998
NCI/ADR-RES = test system: NCI/ADR-RES
HOP-62 = test system: HOP-62
KM-20L2 = test system: KM-20L2

| Structure (SMILES) | GI50 (A498) | GI50 (SF-539) | GI50 (SF-268) | GI50 (HCT-116) | GI50 (SNB-78) | GI50 (HT-29) | GI50 (HOP-18) | GI50 (HL-60) | GI50 (SN12C) | GI50 (XF498) | GI50 (K562) | GI50 (HCC 2998) | GI50 (NCI/ADR-RES) | GI50 (HOP-62) | GI50 (KM-20L2) |
| --- | --- | --- | --- | --- | --- | --- | --- | --- | --- | --- | --- | --- | --- | --- | --- |
| COC1/C=C\C=C(/C)C(=O)NC2=CC(=O)C=C(C2=O)C(OC)C(C)CC(OC)C(OC)C(C)/C=C(/C)C1OC(N)=O (stereo not drawn) | 15.1 µM (inactive) | 8.09 µM (inactive) | 11.5 µM (inactive) | 1.34 µM (inactive) | 2.14 µM (inactive) | 0.608 µM (active) | 0.29 µM (active) | 0.132 µM (active) | 5.25 µM (inactive) | 1.87 µM (inactive) | 0.15 µM (active) | 2.66 µM (inactive) | 5.73 µM (inactive) | 2.92 µM (inactive) | 3.2 µM (inactive) |
| COc1ccc(C2C3CCCC(C3=O)C(c3ccc(OC)cc3)N2N=O)cc1 (stereo not drawn) | 15.2 µM (inactive) | > 10 µM (inactive) | 48.5 µM (inactive) | 29 µM (inactive) | > 66.4 µM (inactive) | 21.4 µM (inactive) | 8.91 µM (inactive) | 25.2 µM (inactive) | 18.5 µM (inactive) | 33.7 µM (inactive) | 23.9 µM (inactive) | 28.9 µM (inactive) | 32.4 µM (inactive) | 38.5 µM (inactive) | 30.7 µM (inactive) |
| CSCC[C@@H]1C(=O)N(C)[C@H](C(C)(C)C)N1C(=O)c1ccccc1 | > 100 µM (inactive) | > 100 µM (inactive) | > 100 µM (inactive) | > 100 µM (inactive) | > 100 µM (inactive) | > 81.5 µM (inactive) | > 100 µM (inactive) | > 100 µM (inactive) | > 100 µM (inactive) | > 100 µM (inactive) | > 100 µM (inactive) | > 100 µM (inactive) | > 100 µM (inactive) | > 100 µM (inactive) | > 100 µM (inactive) |
| CCCSCC(P(=O)(O)O)P(=O)(O)O.NC1CCCCC1 | 8.59 µM (inactive) | > 100 µM (inactive) | > 100 µM (inactive) | > 100 µM (inactive) | > 100 µM (inactive) | > 100 µM (inactive) | > 100 µM (inactive) | > 100 µM (inactive) | > 100 µM (inactive) | > 100 µM (inactive) | > 100 µM (inactive) | > 100 µM (inactive) | > 100 µM (inactive) | > 100 µM (inactive) | > 100 µM (inactive) |
| COc1ccc(/C(C=O)=C(\Cl)c2ccc(OC)c(OC)c2)cc1 | 18.4 µM (inactive) | 57.3 µM (inactive) | 46.1 µM (inactive) | > 100 µM (inactive) | 23 µM (inactive) | > 100 µM (inactive) | > 100 µM (inactive) | 24 µM (inactive) | > 100 µM (inactive) | 15.4 µM (inactive) | 62.8 µM (inactive) | > 100 µM (inactive) | – | 36.8 µM (inactive) | > 100 µM (inactive) |
| N#CC(Nc1cccc(C(F)(F)F)c1)c1ccccc1C(F)(F)F (stereo not drawn) | 19.1 µM (inactive) | 18.4 µM (inactive) | 17.2 µM (inactive) | 7.66 µM (inactive) | 20.1 µM (inactive) | 13.7 µM (inactive) | 13.5 µM (inactive) | 4.9 µM (inactive) | 7.4 µM (inactive) | 3.94 µM (inactive) | 14.5 µM (inactive) | 7.78 µM (inactive) | – | 3.52 µM (inactive) | 13.8 µM (inactive) |
| CC(C)CC1NC(=O)C(NC(=O)c2ncccc2O)C(C)OC(=O)C(c2ccccc2)N(C)C(=O)C(C)NC(=O)C(C(C)C(C)C)N(C)C(=O)CN(C)C(=O)C2CC(O)CN2C1=O (stereo not drawn) ({Picolinoyl(3-OH)}-TL[Hyp][Sar][X56]A[NMePhg]; ester 1-C; configuration not given here) | > 107 µM (inactive) | 74.5 µM (inactive) | 51.3 µM (inactive) | 26.9 µM (inactive) | > 125 µM (inactive) | 37.6 µM (inactive) | 83.6 µM (inactive) | 58.9 µM (inactive) | 65.8 µM (inactive) | 35.6 µM (inactive) | 61.8 µM (inactive) | 78.7 µM (inactive) | > 125 µM (inactive) | > 125 µM (inactive) | 7.93 µM (inactive) |
